Laboratory results from patent publication US20220387451A1, “AMORPHOUS PHARMACEUTICAL COMPOSITIONS OF ABIRATERONE ACETATE” (SUVEN LIFE SCIENCES LIMITED, priority 2019, published 2022).

Tests used:
[1] = Excretion after an oral dose of abiraterone acetate (literature); assay type: in vivo; conditions: feces plus urine
Source text: Due to highly lipophilic nature and poor aqueous solubility in the gastrointestinal tract, the oral bioavailability of abiraterone acetate is limited. After an oral dose of abiraterone acetate, 88% of the administered drug gets excreted unchanged through feces, and another 5% is excreted in the urine (Ryan C J et al., J ClinOncol. 2010; 28(9):1481-1488). Therefore, >90% of the administered drug gets excreted and is not used for its intended treatment. […] As a result, Zytiga® must be taken on an empty stomach with water at least […] a meal. There is a need for developing new pharmaceutical compositions for abiraterone acetate that improve bioavailability in the fasted state to in turn reduce the food effect and overall variability in absorption.

[2] = after an oral dose; cited from earlier work

administered drug excreted [1]: > 90%
Structure (SMILES): CC(=O)O[C@H]1CC[C@@]2(C)C(=CC[C@@H]3[C@@H]2CC[C@]2(C)C(c4cccnc4)=CC[C@@H]32)C1 [Abiraterone acetate]
administered drug excreted in the urine [2]: 5% | administered drug excreted unchanged through feces [2]: 88%
